Source: patent US9045491B2, “Thienyl [3,2-D] pyrimidin-4-one compounds, preparation method, pharmaceutical compositions and use thereof” (SHANGHAI INSTITUTE OF MATERIA MEDICA, CHINESE ACADEMY OF …, priority 2011, dated 2015)

Key:
normal ICR mouse = test: Oral glucose tolerance test (OGTT), acute hypoglycemic effect of single oral dose; type: in vivo
Protocol: Acute hypoglycemic effect of single dose through mouth on the normal ICR mouse
Animal: ICR mouse (8-10 weeks old, sex: male, weight: 25-30 g, purchased from Shanghai SLAC Laboratory Animal Center).
1. Two days before the experiment, the food consumption was recorded and the daily food consumption of each animal was calculated;
2. The animals fasted overnight (⅓ of daily food consumption was provided, about 2 g);
3. The blood glucose was measured on the second day.
4. The medicament was administrated through gavage (1 mouse/min). After 6 hours, the blood glucose was measured. Glucose was administrated through gavage according to the body weight (2.5 g/kg). The blood glucose value was monitored at 30 min, 60 min, 90 min, and 120 min after administration.

DPP IV = target: T1, DPP IV (Mus musculus, UniProt P28843); test: DPP IV inhibitory activity in vivo: DPP IV activity in plasma of ICR mouse after single oral dose; details: oral 3 mg/kg, compared with Alogliptin and Vildagliptin (LAF237), FIG. 1-6
T1 construct: from tissue; host or cells: plasma of ICR mouse
T1 sequence (P28843 37-760 limits assumed): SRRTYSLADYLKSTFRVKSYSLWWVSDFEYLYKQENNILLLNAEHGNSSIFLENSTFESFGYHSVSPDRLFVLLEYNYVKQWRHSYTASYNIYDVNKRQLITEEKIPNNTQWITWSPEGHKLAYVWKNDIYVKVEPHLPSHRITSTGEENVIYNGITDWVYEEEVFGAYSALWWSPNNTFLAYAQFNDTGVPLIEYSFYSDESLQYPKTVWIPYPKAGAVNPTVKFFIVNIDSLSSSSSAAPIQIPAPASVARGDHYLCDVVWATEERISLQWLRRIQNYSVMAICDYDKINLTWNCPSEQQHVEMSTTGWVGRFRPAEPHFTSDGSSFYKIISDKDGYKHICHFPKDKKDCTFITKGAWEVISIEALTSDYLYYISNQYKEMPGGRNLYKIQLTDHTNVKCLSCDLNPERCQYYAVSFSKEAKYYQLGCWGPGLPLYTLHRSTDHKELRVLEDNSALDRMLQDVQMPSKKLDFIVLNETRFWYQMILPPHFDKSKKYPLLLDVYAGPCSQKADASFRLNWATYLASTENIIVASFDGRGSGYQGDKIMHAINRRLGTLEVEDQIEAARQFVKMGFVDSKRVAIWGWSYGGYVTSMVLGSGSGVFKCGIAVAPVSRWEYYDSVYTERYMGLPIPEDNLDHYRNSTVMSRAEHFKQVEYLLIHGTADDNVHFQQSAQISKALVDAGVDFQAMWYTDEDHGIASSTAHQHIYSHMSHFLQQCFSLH
Protocol: Animals: ICR mouse (8-10 weeks old; sex: male; 25 g-30 g of body weight, purchased from Shanghai SLAC Laboratory Animal Center).
Meanwhile the solvent group was used as blank control. The blood was taken from orbital venous plexus of the mouse before administration, and 30, 60, 2 h, 4 h, 6 h, 8 h and […] after administration, respectively and loaded into Eppendorf tube (Qizhong Industrial (Shanghai) co., Ltd.) treated by anticoagulant. The plasma was obtained by centrifugation and DPP IV activity was determined.

COC(=O)c1cc2nc(N3CCCC(N)C3)n(Cc3ccccc3C#N)c(=O)c2s1 (stereo not drawn) [DC291407]
hypoglycemic ability in vivo, oral glucose tolerance test after multiple single-dose administration (normal ICR mouse; single administration at multiple doses, FIGS. 11-12): comparable to that of Alogliptin | hypoglycemic ability in vivo, oral glucose tolerance test (normal ICR mouse; single dose 3 mg/kg by gavage, glucose 2.5 g/kg after 6 hours, FIGS. 7-10): comparable to that of Alogliptin | DPP IV activity of ICR mouse plasma after single dose (given as hypoglycemic ability in vivo) (DPP IV): comparable to that of Alogliptin (3 mg), and better than that of Vildagliptin (LAF237, 15 mg)
